{
  "source": "paper PMC10609219",
  "about": "(Molecules, 2023)",
  "molecular_target": "T1, DPP-4 (Homo sapiens, UniProt P27487)",
  "T1 construct": "gene DPP4",
  "T1 sequence (P27487 39-766)": "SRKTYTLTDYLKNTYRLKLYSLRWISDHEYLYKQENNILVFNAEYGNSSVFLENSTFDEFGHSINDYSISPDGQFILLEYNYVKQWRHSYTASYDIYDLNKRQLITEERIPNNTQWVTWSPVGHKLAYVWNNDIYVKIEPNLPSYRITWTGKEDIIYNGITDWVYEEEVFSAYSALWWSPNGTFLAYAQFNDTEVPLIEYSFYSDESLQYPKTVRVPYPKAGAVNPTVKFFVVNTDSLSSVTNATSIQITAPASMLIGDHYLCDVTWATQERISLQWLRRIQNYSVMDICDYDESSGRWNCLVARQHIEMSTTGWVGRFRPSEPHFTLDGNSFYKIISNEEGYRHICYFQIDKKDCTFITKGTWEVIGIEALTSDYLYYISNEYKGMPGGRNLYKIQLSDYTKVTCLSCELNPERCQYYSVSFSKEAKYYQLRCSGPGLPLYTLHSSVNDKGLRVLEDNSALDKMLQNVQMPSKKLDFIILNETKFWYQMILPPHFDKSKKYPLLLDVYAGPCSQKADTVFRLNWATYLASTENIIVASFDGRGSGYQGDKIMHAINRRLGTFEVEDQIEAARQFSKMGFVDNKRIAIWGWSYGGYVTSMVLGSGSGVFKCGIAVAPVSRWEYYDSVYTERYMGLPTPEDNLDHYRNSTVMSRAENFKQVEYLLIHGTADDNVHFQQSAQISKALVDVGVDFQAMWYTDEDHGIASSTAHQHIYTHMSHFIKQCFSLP",
  "assay": "fluorogenic enzyme inhibition assay (Cayman DPP-4 inhibitor screening kit)",
  "assay_type": "biochemical",
  "data": [
    {"smiles": "O=C(O)/C=C/c1ccc(O)c(O)c1", "note": "[caffeic acid, (E)-3-(3,4-dihydroxyphenyl)prop-2-enoic acid]", "values": [
      {"measurement": "IC50", "result": "158 ± 11.3", "unit": "µM"}
    ]}
  ]
}
